The values below come from patent US6100275A, “8-azabicyclo[3.2.1.]oct-2-ene derivatives, their preparation and use” (Neurosearch A/S, priority 1995, dated 2000).

The subject of assay [1] is mice (immobility time, tail suspension). Description: Tail suspension test for antidepressant activity (immobility time). It counts as in vivo, mouse (female NMRI). As to conditions: Mus musculus, 0.5 h, oral, 30 min before test, 6 min observation, graphical interpolation from at least 3 doses, read-out: ED50 (dose reducing the immobility to 100 sec). As for the experimental part: A decrease in the immobility time by mice suspended in their tail is seen after systemic administration of central stimulants and by antidepressants (Steru, L., Chermat, R., Thierry, B. & Simon, P. (1985) The tail suspension test: A new method for screening antidepressants in mice. Psychopharmacology 85:367-370.).
Female NMRI mice (20-25 g) habituated to the room (12 hours light/dark) for at least 16 hours and housed 25 per cage are used. The mice are suspended by the tail with adhesive tape to a rod 30 cm above the lab. bench 30 min after an oral administation of vehicle or drug. For the next 6 min the accumulated duration of immobility defined as no movements by the body or extremities (however head movements are not defined as movements) are noted. Six mice per dose are used.
Saline or vehicle treated mice have immobility time scores between 160-180 sec in average. An ED50 -value is calculated by graphical interpolation from at least 3 doses as the dose reducing the immobility to 100 sec.

Assay [2] deals with T1, 3H-noradrenaline (NA) uptake in hippocampal synaptosomes (Rattus norvegicus, UniProt Q63380).
T1 construct: Hippocampi from male Wistar rats (150-200 g); from tissue; host or cells: hippocampus of male Wistar rats, crude synaptosomal P2 fraction
T1 sequence (Q63380 1-617): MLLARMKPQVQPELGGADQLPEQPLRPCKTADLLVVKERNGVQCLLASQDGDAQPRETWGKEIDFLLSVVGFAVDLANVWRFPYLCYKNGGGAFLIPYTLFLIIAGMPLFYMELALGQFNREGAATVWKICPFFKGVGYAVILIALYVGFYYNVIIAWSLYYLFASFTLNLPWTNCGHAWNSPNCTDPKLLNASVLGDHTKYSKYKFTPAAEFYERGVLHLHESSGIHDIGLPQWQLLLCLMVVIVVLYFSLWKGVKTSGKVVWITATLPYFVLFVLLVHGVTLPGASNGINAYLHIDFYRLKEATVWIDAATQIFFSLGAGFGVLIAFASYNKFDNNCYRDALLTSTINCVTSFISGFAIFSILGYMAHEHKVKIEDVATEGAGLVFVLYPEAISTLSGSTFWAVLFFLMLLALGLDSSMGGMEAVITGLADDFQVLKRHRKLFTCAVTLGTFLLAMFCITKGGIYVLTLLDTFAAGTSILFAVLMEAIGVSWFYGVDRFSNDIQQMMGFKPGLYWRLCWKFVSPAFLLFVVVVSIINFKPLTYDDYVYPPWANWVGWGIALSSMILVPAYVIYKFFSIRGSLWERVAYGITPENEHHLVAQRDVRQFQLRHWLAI
Description: In vitro inhibition of 3H-noradrenaline (3H-NA) uptake in hippocampal synaptosomes. It counts as biochemical, rat (male Wistar). An excerpt: (§1) Specific neurotransmitter transporters/uptake sites on nerve terminals presumably function to terminate neuronal signaling by removing the neurotransmitters dopamine, noradrenaline and serotonin, respectively, from the synaptic cleft. The activity of the transporter integral proteins can be measured in vitro by synaptosomal uptake of ^3 H-dopamine, ^3 H-noradrenaline and ^3 H-serotonine, respectively.
In vitro Inhibition of ^3 H-noradrenaline (^3 H-NA) Uptake in Hippocampal Synaptosomes
Tissue preparation: Preparations are performed at 0-4° C. unless otherwise indicated. Hippocampi from male Wistar rats (150-200 g) are homogenized for 5-10 sec in 100 volumes of ice-cold 0.32M sucrose containing 1 mM pargyline using an Ultra-Turrax homogenizer. Monoamine oxidase activity will be inhibited in the presence of pargyline. The homogenate is centrifuged at 1000×g for 10 min. […]
Assay: Aliquots of 4.0 ml tissue suspension are added to 100 μl of test solution and 100 μl of ^3 H-NA (1 nM, final concentration), mixed and incubated for 90 min at 37° C. Non-specific uptake is determined using desipramine (1 μM, final concentration). […] The amount of radioactivity on the filters is determined by conventional liquid scintillation counting. Specific uptake is calculated as the difference between total uptake and non-specific uptake. […]

Assay [3] has as its target T2, 3H-dopamine (DA) uptake in striatal synaptosomes (Rattus norvegicus, UniProt P23977).
T2 construct: Corpi striati from male Wistar rats (150-200 g); from tissue; host or cells: corpus striatum of male Wistar rats, crude synaptosomal P2 fraction
Nature of the assay: In vitro inhibition of 3H-dopamine (3H-DA) uptake in striatal synaptosomes. It counts as biochemical, rat (male Wistar).
Description: as §1
In vitro Inhibition of ^3 H-dopamine (^3 H-DA) Uptake in Striatal Synaptosomes
Tissue preparations: Preparations are performed at 0-4° C. unless otherwise indicated. Corpi striati from male Wistar rats (150-200 g) are homogenized for 5-10 sec in 100 volumes of ice-cold 0.32M sucrose containing 1 mM pargyline using an Ultra-Turrax homogenizer. Monoamine oxidase activity will be inhibited in the presence of pargyline. The homogenate is centrifuged at 1000×g for 10 min. […]
Assay: Aliquots of 4.0 ml tissue suspension are added to 100 μl of test solution and 100 μl of ^3 H-DA (1 nM, final concentration), mixed and incubated for 25 min at 37° C. Non-specific uptake is determined using benztropine (10 μM, final concentration). […] The amount of radioactivity on the filters is determined by conventional liquid scintillation counting. Specific uptake is calculated as the difference between total uptake and non-specific uptake. […]

Assay [4] concerns the target T3, 3H-5-hydroxytryptamine (5-HT, serotonin) uptake in cortical synaptosomes (Rattus norvegicus, UniProt P31652).
T3 construct: Cerebral cortices from male Wistar rats (150-200 g); from tissue; host or cells: cerebral cortex of male Wistar rats, crude synaptosomal P2 fraction
Nature of the assay: In vitro inhibition of 3H-5-hydroxytryptamine (3H-5-HT, serotonin) uptake in cortical synaptosomes. It counts as biochemical, rat (male Wistar).
Description: as §1
In vitro Inhibition of ^3 H-5-hydroxytryptamine (^3 H-5-HT, serotonin) Uptake in Cortical Synaptosomes
Tissue preparation: Preparations are performed at 0-4° C. unless otherwise indicated. Cerebral cortices from male Wistar rats (150-200 g) are homogenized for 5-10 sec in 100 volumes of ice-cold 0.32M sucrose containing 1 mM pargyline using an Ultra-Turrax homogenizer. Monoamine oxidase activity will be inhibited in the presence of pargyline. The homogenate is centrifuged at 1000×g for 10 min. […]
Assay: Aliquots of 4.0 ml tissue suspension are added to 100 μl of test solution and 100 μl of ^3 H-5-HT (1 nM, final concentration), mixed and incubated for 30 min at 37° C. Non-specific uptake is determined using citalopram (1 μM, final concentration). […] The amount of radioactivity on the filters is determined by conventional liquid scintillation counting. Specific uptake is calculated as the difference between total uptake and non-specific uptake. […]

T2 sequence (P23977 whole entry): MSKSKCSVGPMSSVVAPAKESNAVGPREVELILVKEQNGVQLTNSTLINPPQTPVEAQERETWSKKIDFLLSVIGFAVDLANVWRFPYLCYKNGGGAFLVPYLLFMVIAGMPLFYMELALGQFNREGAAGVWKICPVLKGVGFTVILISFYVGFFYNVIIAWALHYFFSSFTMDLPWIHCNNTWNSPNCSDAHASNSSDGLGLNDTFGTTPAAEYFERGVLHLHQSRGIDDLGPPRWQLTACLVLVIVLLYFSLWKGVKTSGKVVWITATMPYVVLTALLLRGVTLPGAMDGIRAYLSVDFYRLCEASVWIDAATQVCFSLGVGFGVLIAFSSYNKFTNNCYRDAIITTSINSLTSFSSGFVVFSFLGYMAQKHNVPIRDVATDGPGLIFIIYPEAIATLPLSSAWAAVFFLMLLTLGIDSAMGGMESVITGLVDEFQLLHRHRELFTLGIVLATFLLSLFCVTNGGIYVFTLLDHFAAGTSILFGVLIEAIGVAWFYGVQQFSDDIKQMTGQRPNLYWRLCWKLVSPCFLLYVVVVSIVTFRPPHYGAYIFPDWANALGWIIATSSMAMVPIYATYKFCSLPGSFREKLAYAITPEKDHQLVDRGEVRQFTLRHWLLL
T3 sequence (P31652 whole entry): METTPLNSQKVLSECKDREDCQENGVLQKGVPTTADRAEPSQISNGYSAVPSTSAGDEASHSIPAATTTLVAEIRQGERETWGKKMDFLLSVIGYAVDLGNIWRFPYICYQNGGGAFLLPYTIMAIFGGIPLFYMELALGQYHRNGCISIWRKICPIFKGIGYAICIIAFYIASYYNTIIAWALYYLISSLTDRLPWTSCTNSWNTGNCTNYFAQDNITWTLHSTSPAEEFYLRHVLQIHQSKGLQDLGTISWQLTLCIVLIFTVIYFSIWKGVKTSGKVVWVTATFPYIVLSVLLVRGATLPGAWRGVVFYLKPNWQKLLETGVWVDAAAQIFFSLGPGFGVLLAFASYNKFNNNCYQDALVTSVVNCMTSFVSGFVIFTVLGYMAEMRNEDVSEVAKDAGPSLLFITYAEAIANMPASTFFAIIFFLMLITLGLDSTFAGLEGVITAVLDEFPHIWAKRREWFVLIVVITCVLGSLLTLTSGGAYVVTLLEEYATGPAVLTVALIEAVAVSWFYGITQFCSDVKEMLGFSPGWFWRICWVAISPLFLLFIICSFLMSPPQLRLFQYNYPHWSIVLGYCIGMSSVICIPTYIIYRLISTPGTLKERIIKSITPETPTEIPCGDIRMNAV

Regarding `CN1C2C=C(c3ccc(Cl)c(Cl)c3)CC1CC2` (racemic) [(±)-3-(3,4-Dichlorophenyl)-8-methyl-8-azabicyclo[3.2.1]oct-2-ene], in assay [1], the median effective dose (ED50) was determined as 0.96 mg/kg. The IC50 in assay [2] was found to be 0.026 µM; in assay [3], 0.079 µM; in assay [4], 0.0047 µM.

The ED50 is the dose at which the effect has come halfway, by size or by number of responders. By IC50 is commonly meant the concentration that inhibits the measured activity by half. A low value points to inhibition by little substance.
